In the test the test system is HCV replicon. In words: microbe, parasite or virus in culture. Format: cell-based. Particulars: for pIC50: Replicon IC50 values are determined by firefly luciferase signal, bicistronic replicon, 2 days, read-out: Replicon IC5Os.

Each structure is given as a SMILES string. pIC50: −log10 of the molar value. Like-named read-outs stand apart in the source and are kept apart here.

In the case of `CCn1cc(C#N)c2ccc(Cl)cc21` [Compound 118], the pIC50 was 5.70 to 6.30.
The same measure, in the same setting: for `CCn1c(-c2ccc(NC(=O)OCc3ccccc3)cc2)c(C#N)c2ccc(OC)cc21` [Compound 122] the value was less than 5.70.
Same read-out and setting: to `CCn1cc(C#N)c2ccc(C(F)(F)F)cc21` [Compound 123] belongs less than 5.70.
Still for that read-out and setting: to `Cc1ccc2c(C#N)c(C)n(-c3ccc4c(c3)OCO4)c2c1` [Compound 125] belongs 5.70 to 6.30; to `CCn1cc(C#N)c2ccc(Br)cc21` [Compound 126], less than 5.70.
For the molecule `COc1ccc(-n2cc(C#N)c3ccc(Br)cc32)cc1` [Compound 127], the pIC50 was less than 5.70.
The same measure, in the same setting: to `CCn1c(C#Cc2cccc3ccccc23)c(C#N)c2ccc(OC)cc21` [Compound 133] belongs 5.70 to 6.30; to `CCn1c(C#Cc2ccccc2Br)c(C#N)c2ccc(OC)cc21` [Compound 136], 5.70 to 6.30.
Still for that read-out and setting: for `CCn1c(C#Cc2ccc(OC)cc2C)c(C#N)c2ccc(OC)cc21` [Compound 137] the value was 5.70 to 6.30; for `CCn1cc(C#N)c2cc(-c3cccs3)ccc21` [Compound 140], less than 5.70.
On the same count and under the same terms, to `CCn1cc(C#N)c2cc(-c3ccoc3)ccc21` [Compound 142] belongs less than 5.70; to `CCn1c(C#Cc2ccc(N3CCCCC3)cc2)c(C#N)c2ccc(OC)cc21` [Compound 143], less than 5.70.
On to `CCn1c(C#Cc2cccc(Cl)c2)c(C#N)c2ccc(OC)cc21` [Compound 146], for which the pIC50 is 5.70 to 6.30.
The same measure, in the same setting: for `CCn1c(C#Cc2ccc(N(C)C)cc2)c(C#N)c2ccc(OC)cc21` [Compound 147] the value was 5.70 to 6.30; for `CCn1c(C#Cc2ccc(Cl)cc2)c(C#N)c2ccc(OC)cc21` [Compound 148], 5.70 to 6.30; for `CCOc1ccc(C#Cc2c(C#N)c3ccc(OC)cc3n2CC)cc1` [Compound 149], 5.70 to 6.30.
On to `CCn1c(C#Cc2ccccc2F)c(C#N)c2ccc(OC)cc21` [Compound 150], for which the pIC50 is 5.70 to 6.30.
The same measure, in the same setting: to `CCn1c(C#Cc2cccc(F)c2)c(C#N)c2ccc(OC)cc21` [Compound 151] belongs 5.70 to 6.30.
On the same count and under the same terms, to `CCn1c(C#Cc2ccc(NC(=O)C(C)C)cc2)c(C#N)c2ccc(OC)cc21` [Compound 152] belongs less than 5.70; to `CCn1c(C#Cc2ccc(OC)c(OC)c2)c(C#N)c2ccc(OC)cc21` [Compound 159], 5.70 to 6.30.
Same read-out and setting: to `CCn1c(C#Cc2ccc(NC(=O)[C@@H]3CCCN3)cc2)c(C#N)c2ccc(OC)cc21` [Compound 162] belongs less than 5.70; to `CCn1c(C#Cc2ccc(NC(=O)c3c[nH]cn3)cc2)c(C#N)c2ccc(OC)cc21` [Compound 163], 5.70 to 6.30.
With `CCC(=O)Nc1ccc(C#Cc2c(C#N)c3ccc(O)cc3n2CC)cc1` [Compound 164], the pIC50 was 5.70 to 6.30.
Same read-out and setting: for `CCn1c(C#Cc2ccc(NC(=O)CN)cc2)c(C#N)c2ccc(OC)cc21` [Compound 165] the value was less than 5.70; for `CCn1c(C#Cc2ccccc2N)c(C#N)c2ccc(OC)cc21` [Compound 169], 5.70 to 6.30; for `CCn1c(C#Cc2cccs2)c(C#N)c2ccc(OC)cc21` [Compound 170], 5.70 to 6.30.
Same read-out and setting: to `CCn1c(C#Cc2ccsc2)c(C#N)c2ccc(OC)cc21` [Compound 171] belongs 5.70 to 6.30.
On the same count and under the same terms, for `CCn1c(C#Cc2ccccn2)c(C#N)c2ccc(OC)cc21` [Compound 174] the value was 5.70 to 6.30; for `CCn1c(C#Cc2ccc(OC)cc2)c(C#N)c2cc(OC)ccc21` [Compound 177], 5.70 to 6.30; for `CCn1c(C#Cc2ccc(C(F)(F)F)cc2)c(C#N)c2cc(OC)ccc21` [Compound 178], less than 5.70.
On to `CCn1cc(C#N)c2cc(C(F)(F)F)ccc21` [Compound 179], for which the pIC50 is 5.70 to 6.30.
Same read-out and setting: to `CCn1c(-c2ccc(N(C)S(=O)(=O)CC)cc2)c(C#N)c2ccc(OC)cc21` [Compound 181] belongs 5.70 to 6.30.
Regarding `CCn1c(C#Cc2cccc3ccccc23)c(C#N)c2ccc(O)cc21` [Compound 184], the pIC50 is 5.70 to 6.30.
Still for that read-out and setting: to `CCn1c(C#Cc2ccc(OC)cc2)c(C#N)c2ccc(O)cc21` [Compound 186] belongs 5.70 to 6.30; to `CCn1c(C#Cc2ccc(Cl)cc2)c(C#N)c2ccc(O)cc21` [Compound 187], 5.70 to 6.30.
Same read-out and setting: for `CCn1c(-c2ccc(NS(=O)(=O)CC)cc2)c(C#N)c2ccc(O)cc21` [Compound 190] the value was 5.70 to 6.30.
Still for that read-out and setting: to `CCn1c(-c2ccc(N(C)S(C)(=O)=O)cc2)c(C#N)c2ccc(O)cc21` [Compound 191] belongs less than 5.70; to `CCn1c(C#Cc2ccc(NC(=O)C3CCCC3)cc2)c(C#N)c2ccc(O)cc21` [Compound 195], 5.70 to 6.30; to `CCn1c(C#Cc2ccc(OC)cc2)c(C#N)c2ccc(C(F)(F)F)cc21` [Compound 199], less than 5.70.
With `CCn1c(C#Cc2cccc(OC)c2)c(C#N)c2ccc(C(F)(F)F)cc21` [Compound 202], the pIC50 was 5.70 to 6.30.
Same read-out and setting: to `CCn1c(NC(C)=O)c(C#N)c2ccc(OC)cc21` [Compound 203] belongs 5.70 to 6.30.
Take `CCn1c(NC(=O)c2ccccc2)c(C#N)c2ccc(OC)cc21` [Compound 204]: the IC50 (Hepatitis C virus, 48 h, read-out: Replicon IC5Os μM) is less than 0.5 µM.
For `CCn1c(C#Cc2cccc(NS(C)(=O)=O)c2)c(C#N)c2ccc(OC)cc21` [Compound 208], the pIC50 was 5.70 to 6.30.
With `CCn1c(C#Cc2cccc(NS(=O)(=O)C(C)C)c2)c(C#N)c2ccc(OC)cc21` [Compound 210], the pIC50 was 5.70 to 6.30.
Still for that read-out and setting: for `CCn1c(C#Cc2cccc(NC(=O)C(C)(C)C)c2)c(C#N)c2ccc(OC)cc21` [Compound 212] the value was 5.70 to 6.30.
Same read-out and setting: for `CCn1c(NC(=O)c2cccc(F)c2)c(C#N)c2ccc(OC)cc21` [Compound 214] the value was greater than 6.30; for `CCn1c(NC(=O)c2ccc(C#N)cc2)c(C#N)c2ccc(OC)cc21` [Compound 215], 5.70 to 6.30.
The same measure, in the same setting: for `CCn1c(C#Cc2cccc(N3CCNC3=O)c2)c(C#N)c2ccc(OC)cc21` [Compound 222] the value was 5.70 to 6.30; for `CCn1c(C#Cc2ccc(N)cc2)c(C#N)c2cc(OC)ccc21` [Compound 223], 5.70 to 6.30.
For the molecule `CCn1c(C#Cc2ccc(NC(C)=O)cc2)c(C#N)c2cc(OC)ccc21` [Compound 224], the pIC50 was 5.70 to 6.30.
Same read-out and setting: to `CCC(=O)Nc1ccc(C#Cc2c(C#N)c3cc(OC)ccc3n2CC)cc1` [Compound 225] belongs 5.70 to 6.30.
Take `CCn1c(C#Cc2ccc(NC(=O)COC)cc2)c(C#N)c2cc(OC)ccc21` [Compound 228]: the pIC50 was less than 5.70.
On the same count and under the same terms, to `CCOc1ccc(-c2c(C#N)c3cc(OC)ccc3n2CC)cc1` [Compound 229] belongs less than 5.70; to `COc1ccc2c(C#N)c(C#Cc3cccc4ccccc34)[nH]c2c1` [Compound 230], less than 5.70; to `COc1ccc2c(C#N)c(C#Cc3cccc(O)c3)[nH]c2c1` [Compound 231], less than 5.70.
On the same count and under the same terms, for `COc1ccc2c(C#N)c(C#Cc3cccc(Cl)c3)[nH]c2c1` [Compound 232] the value was less than 5.70; for `COc1ccc2c(C#N)c(C#Cc3ccc(N)cc3)[nH]c2c1` [Compound 234], less than 5.70; for `COc1ccc2c(C#N)c(C#Cc3ccc(N(C)C)cc3)[nH]c2c1` [Compound 235], 5.70 to 6.30.
Still for that read-out and setting: to `COc1ccc2c(C#N)c(C#Cc3ccc(C)cc3)[nH]c2c1` [Compound 236] belongs less than 5.70; to `COc1cccc(C#Cc2[nH]c3cc(OC)ccc3c2C#N)c1` [Compound 237], less than 5.70.

Source of the values: patent US8013006B2.
